For 12 compounds, IC50 results are on record in ChEMBL document CHEMBL1151587, “Development of new non-peptide GPIIb/IIIa antagonists, NSL-95315 and NSL-95317, isosteres of NSL-95300” (Bioorg Med Chem Lett, 1997).

For the assay, the species on record is Homo sapiens. Kind of assay: Concentration required to inhibit collagen-induced platelet aggregation in human platelet rich plasma (PRP). The class given is functional.
A word on the IC50: it is the midpoint of a concentration-inhibition curve. Read a low IC50 as higher potency. Compound `CC(C)(/C=C/C(O)c1ccc(C(=N)N)cc1)C(=O)N1CCC(CC(=O)O)CC1` (configuration not stated) gave an IC50 of 7600 nM. Take `C#CCOC(/C=C/c1ccc(C(=N)N)cc1)C(C)(C)C(=O)N1CCC(CC(=O)O)CC1` (configuration not stated): the IC50 is 270 nM.

`COC(/C=C/c1ccc(C(=N)N)cc1)C(C)(C)C(=O)N1CCC(CC(=O)O)CC1` (configuration not stated) had a 50% inhibitory concentration (IC50) of 250 nM. Regarding `CC(C)(C(=O)/C=C/c1ccc(C(=N)N)cc1)C(=O)N1CCC(CC(=O)O)CC1`, the IC50 amounted to 3500 nM. This IC50 is about 14-fold higher than that of the compound before. The result for `CC(C)(/C=C/C(=O)c1ccc(C(=N)N)cc1)C(=O)N1CCC(CC(=O)O)CC1` reads 210 nM. With `CC(C)(CCC(=O)c1ccc(C(=N)N)cc1)C(=O)N1CCC(CC(=O)O)CC1`, it took 630 nM to reach half-maximal inhibition (IC50). The result for `CCCCCCOC(/C=C/c1ccc(C(=N)N)cc1)C(C)(C)C(=O)N1CCC(CC(=O)O)CC1` (configuration not stated) reads 1600 nM; that for `CC(C)(C(=O)N1CCC(CC(=O)O)CC1)/C(O)=C/C(=O)c1ccc(C(=N)N)cc1`, 600000 nM; that for `CCOC(/C=C/c1ccc(C(=N)N)cc1)C(C)(C)C(=O)N1CCC(CC(=O)O)CC1` (configuration not stated), 260 nM. Consider `COC(CCc1ccc(C(=N)N)cc1)C(C)(C)C(=O)N1CCC(CC(=O)O)CC1` (configuration not stated), for which the IC50 was 480 nM.

`CC(C)(C(=O)N1CCC(CC(=O)O)CC1)C(/C=C/c1ccc(C(=N)N)cc1)OCc1ccccc1` (configuration not stated) returned an IC50 of 730 nM. The result for `CC(C)(C(=O)N1CCC(CC(=O)O)CC1)C(O)/C=C/c1ccc(C(=N)N)cc1` (configuration not stated) reads 600 nM.
